Holding throughout (assay): Drug affinity chromatography with c-ponatinib and LC-MS/MS (ponatinib interactome)
Format in all cases: binding

The target in assay [1] is T1, proteins of U2OS cell lysate (Homo sapiens, UniProt O43809).
T1 construct: Proteins enriched by c-ponatinib from U2OS cell lysate; endogenous in cells; host or cells: U2OS cell lysate
The following applies: NUDT21, Cleavage and polyadenylation specificity factor subunit 5. In outline: (§1)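 Proteins were identified by nano-UPLC–MS/MS after elution with formic acid and trypsin digestion. They were captured from U2OS lysate (2 mg protein per pulldown, NP-40 buffer) on amine-coupled NHS beads during a 2 h incubation at 4 °C.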

Assay [2] concerns the target T2, proteins of U2OS cell lysate (Homo sapiens, UniProt P05556).
T2 construct: Proteins enriched by c-ponatinib from U2OS cell lysate; endogenous in cells; host or cells: U2OS cell lysate
The settings on record: ITGB1, Integrin beta-1. In outline: as §1

Assay [3] deals with T3, proteins of U2OS cell lysate (Homo sapiens, UniProt P05783).
T3 construct: Proteins enriched by c-ponatinib from U2OS cell lysate; endogenous in cells; host or cells: U2OS cell lysate
T3 sequence (P05783 whole entry): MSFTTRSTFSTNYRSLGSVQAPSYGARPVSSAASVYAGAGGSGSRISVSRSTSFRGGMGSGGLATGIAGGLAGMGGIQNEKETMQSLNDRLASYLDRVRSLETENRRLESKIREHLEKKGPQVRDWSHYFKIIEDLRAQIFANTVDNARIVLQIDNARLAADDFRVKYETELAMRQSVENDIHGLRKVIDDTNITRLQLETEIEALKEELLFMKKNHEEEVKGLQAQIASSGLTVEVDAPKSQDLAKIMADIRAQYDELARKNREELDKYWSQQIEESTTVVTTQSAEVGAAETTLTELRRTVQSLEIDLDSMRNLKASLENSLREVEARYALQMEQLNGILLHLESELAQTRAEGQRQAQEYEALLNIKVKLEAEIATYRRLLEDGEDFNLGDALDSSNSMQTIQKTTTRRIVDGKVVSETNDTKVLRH
The following applies: KRT18, Keratin, type I cytoskeletal 18. In outline:
as §1

Assay [4] deals with T4, proteins of U2OS cell lysate (Homo sapiens, UniProt P07305).
T4 construct: Proteins enriched by c-ponatinib from U2OS cell lysate; endogenous in cells; host or cells: U2OS cell lysate
T4 sequence (P07305 whole entry): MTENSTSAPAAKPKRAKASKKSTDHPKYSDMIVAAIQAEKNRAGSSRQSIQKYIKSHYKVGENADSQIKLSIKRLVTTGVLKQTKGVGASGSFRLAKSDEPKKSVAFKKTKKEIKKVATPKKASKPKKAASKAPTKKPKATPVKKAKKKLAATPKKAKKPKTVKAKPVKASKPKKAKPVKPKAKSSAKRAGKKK
The following applies: H1F0, Histone H1.0. An outline of the steps:
as §1

For assay [5], the target named is T5, proteins of U2OS cell lysate (Homo sapiens, UniProt P08670).
T5 construct: Proteins enriched by c-ponatinib from U2OS cell lysate; endogenous in cells; host or cells: U2OS cell lysate
T5 sequence (P08670 whole entry): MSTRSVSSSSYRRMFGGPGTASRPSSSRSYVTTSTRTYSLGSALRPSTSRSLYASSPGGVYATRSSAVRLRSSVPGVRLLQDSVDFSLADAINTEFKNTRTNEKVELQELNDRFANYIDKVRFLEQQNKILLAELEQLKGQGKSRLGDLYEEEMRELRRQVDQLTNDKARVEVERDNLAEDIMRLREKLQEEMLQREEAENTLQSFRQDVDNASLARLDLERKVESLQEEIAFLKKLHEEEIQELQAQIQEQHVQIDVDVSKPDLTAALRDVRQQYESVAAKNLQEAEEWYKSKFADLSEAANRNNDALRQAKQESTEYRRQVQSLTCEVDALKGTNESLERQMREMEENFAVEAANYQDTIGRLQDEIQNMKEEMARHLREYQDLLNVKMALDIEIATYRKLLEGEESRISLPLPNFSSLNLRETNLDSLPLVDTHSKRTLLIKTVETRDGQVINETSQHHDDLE
The following applies: VIM, Vimentin. In outline: as §1

The target of assay [6] is T6, proteins of U2OS cell lysate (Homo sapiens, UniProt P11021).
T6 construct: Proteins enriched by c-ponatinib from U2OS cell lysate; endogenous in cells; host or cells: U2OS cell lysate
T6 sequence (P11021 19-654): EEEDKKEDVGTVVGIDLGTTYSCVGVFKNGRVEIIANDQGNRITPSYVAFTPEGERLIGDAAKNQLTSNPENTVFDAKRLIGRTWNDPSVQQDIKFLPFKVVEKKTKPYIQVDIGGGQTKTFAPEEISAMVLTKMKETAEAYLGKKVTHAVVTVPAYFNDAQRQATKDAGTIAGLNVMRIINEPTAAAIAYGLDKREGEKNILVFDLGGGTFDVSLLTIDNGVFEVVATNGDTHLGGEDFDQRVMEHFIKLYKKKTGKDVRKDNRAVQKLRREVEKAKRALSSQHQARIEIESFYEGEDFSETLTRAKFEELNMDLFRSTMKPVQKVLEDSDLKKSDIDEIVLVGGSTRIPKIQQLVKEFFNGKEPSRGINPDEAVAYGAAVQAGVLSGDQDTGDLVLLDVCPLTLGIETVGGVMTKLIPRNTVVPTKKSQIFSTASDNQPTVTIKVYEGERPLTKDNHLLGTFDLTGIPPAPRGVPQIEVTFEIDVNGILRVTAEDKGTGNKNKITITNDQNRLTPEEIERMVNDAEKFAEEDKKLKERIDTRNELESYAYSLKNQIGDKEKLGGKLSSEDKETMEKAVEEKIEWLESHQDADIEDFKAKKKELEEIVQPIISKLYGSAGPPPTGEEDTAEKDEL
The following applies: HSPA5, 78 kDa glucose-regulated protein. In outline: as §1

Assay [7] deals with T7, proteins of U2OS cell lysate (Homo sapiens, UniProt P11142).
T7 construct: Proteins enriched by c-ponatinib from U2OS cell lysate; endogenous in cells; host or cells: U2OS cell lysate
T7 sequence (P11142 whole entry): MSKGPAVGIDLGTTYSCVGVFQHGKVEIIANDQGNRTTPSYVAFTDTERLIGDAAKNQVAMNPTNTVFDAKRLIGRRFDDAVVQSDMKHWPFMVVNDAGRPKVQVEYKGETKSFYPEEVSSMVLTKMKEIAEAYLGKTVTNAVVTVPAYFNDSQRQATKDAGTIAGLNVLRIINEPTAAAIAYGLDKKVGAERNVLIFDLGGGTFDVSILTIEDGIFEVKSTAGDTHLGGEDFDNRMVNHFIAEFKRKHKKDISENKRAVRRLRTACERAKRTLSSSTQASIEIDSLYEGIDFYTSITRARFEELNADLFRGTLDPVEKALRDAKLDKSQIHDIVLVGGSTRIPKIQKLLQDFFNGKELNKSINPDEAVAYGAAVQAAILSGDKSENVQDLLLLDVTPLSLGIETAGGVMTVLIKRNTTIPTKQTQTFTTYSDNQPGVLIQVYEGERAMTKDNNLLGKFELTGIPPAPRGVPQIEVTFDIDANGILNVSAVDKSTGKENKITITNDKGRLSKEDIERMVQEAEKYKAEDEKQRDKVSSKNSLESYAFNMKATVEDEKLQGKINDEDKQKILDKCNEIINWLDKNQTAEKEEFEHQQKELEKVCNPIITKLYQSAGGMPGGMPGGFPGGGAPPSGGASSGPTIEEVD
The settings on record: HSPA8, Heat shock cognate 71 kDa protein. In outline: as §1

The target in assay [8] is T8, proteins of U2OS cell lysate (Homo sapiens, UniProt P22830).
T8 construct: Proteins enriched by c-ponatinib from U2OS cell lysate; endogenous in cells; host or cells: U2OS cell lysate
The following applies: FECH, Ferrochelatase, mitochondrial. In outline:
as §1

Assay [9] deals with T9, proteins of U2OS cell lysate (Homo sapiens, UniProt P39019).
T9 construct: Proteins enriched by c-ponatinib from U2OS cell lysate; endogenous in cells; host or cells: U2OS cell lysate
The settings on record: RPS19, 40S ribosomal protein S19. An outline of the steps:
as §1

In assay [10] the target is T10, proteins of U2OS cell lysate (Homo sapiens, UniProt P50991).
T10 construct: Proteins enriched by c-ponatinib from U2OS cell lysate; endogenous in cells; host or cells: U2OS cell lysate
T10 sequence (P50991 whole entry): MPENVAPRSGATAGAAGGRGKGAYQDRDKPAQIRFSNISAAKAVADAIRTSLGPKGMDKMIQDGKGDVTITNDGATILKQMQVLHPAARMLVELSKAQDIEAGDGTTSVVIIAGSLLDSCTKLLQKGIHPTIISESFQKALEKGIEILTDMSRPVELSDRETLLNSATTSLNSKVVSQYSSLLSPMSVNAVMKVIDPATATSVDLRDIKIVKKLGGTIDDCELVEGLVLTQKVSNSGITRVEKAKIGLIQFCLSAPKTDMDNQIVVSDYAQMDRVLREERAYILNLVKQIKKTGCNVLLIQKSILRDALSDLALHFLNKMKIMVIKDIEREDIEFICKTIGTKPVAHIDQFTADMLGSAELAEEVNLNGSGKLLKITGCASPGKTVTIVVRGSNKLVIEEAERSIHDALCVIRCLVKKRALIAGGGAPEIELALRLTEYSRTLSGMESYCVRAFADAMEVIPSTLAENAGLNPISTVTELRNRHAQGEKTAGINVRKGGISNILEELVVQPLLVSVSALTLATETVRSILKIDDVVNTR
The following applies: CCT4, T-complex protein 1 subunit delta. In outline:
as §1

Assay [11] has as its target T11, proteins of U2OS cell lysate (Homo sapiens, UniProt P61247).
T11 construct: Proteins enriched by c-ponatinib from U2OS cell lysate; endogenous in cells; host or cells: U2OS cell lysate
The settings on record: RPS3A, 40S ribosomal protein S3a. In outline:
as §1

Assay [12] concerns the target T12, proteins of U2OS cell lysate (Homo sapiens, UniProt Q07065).
T12 construct: Proteins enriched by c-ponatinib from U2OS cell lysate; endogenous in cells; host or cells: U2OS cell lysate
The settings on record: CKAP4, Cytoskeleton-associated protein 4. An outline of the steps: as §1

Assay [13] has as its target T13, proteins of U2OS cell lysate (Homo sapiens, UniProt Q14204).
T13 construct: Proteins enriched by c-ponatinib from U2OS cell lysate; endogenous in cells; host or cells: U2OS cell lysate
The settings on record: DYNC1H1, Cytoplasmic dynein 1 heavy chain 1. An outline of the steps: as §1

For assay [14], the target named is T14, proteins of U2OS cell lysate (Homo sapiens, UniProt Q15750).
T14 construct: Proteins enriched by c-ponatinib from U2OS cell lysate; endogenous in cells; host or cells: U2OS cell lysate
T14 sequence (Q15750 whole entry): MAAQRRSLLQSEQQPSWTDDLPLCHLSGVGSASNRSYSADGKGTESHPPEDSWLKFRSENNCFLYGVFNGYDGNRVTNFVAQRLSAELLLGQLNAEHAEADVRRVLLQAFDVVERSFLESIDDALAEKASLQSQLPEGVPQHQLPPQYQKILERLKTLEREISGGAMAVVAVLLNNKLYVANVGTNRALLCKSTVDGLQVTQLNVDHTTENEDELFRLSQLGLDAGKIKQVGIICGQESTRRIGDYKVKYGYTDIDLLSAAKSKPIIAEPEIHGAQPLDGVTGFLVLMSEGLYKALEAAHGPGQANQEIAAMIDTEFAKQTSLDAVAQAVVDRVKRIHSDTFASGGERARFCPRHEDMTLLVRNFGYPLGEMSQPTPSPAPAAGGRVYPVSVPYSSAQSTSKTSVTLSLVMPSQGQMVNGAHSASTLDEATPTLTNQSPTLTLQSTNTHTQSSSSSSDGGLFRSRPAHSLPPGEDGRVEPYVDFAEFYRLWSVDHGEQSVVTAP
The following applies: TAB1, TGF-beta-activated kinase 1 and MAP3K7-binding protein 1. In outline: as §1

In assay [15] the target is T15, proteins of U2OS cell lysate (Homo sapiens, UniProt Q16181).
T15 construct: Proteins enriched by c-ponatinib from U2OS cell lysate; endogenous in cells; host or cells: U2OS cell lysate
T15 sequence (Q16181 whole entry): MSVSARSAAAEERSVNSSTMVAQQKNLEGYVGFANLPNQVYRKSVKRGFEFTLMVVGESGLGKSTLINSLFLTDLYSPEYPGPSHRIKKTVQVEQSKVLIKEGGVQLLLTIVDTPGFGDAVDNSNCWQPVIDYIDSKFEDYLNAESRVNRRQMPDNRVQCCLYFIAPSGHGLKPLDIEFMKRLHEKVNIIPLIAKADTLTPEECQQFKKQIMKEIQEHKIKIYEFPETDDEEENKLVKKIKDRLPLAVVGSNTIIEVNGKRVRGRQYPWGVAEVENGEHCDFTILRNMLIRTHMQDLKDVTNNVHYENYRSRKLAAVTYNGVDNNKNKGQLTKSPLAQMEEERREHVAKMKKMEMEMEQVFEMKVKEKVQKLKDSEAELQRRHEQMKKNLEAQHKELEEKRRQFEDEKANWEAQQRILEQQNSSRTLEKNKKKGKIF
The following applies: SEPT7;DKFZp586I031, Septin-7. In outline: as §1

In assay [16] the target is T16, proteins of U2OS cell lysate (Homo sapiens, UniProt Q6PHR2).
T16 construct: Proteins enriched by c-ponatinib from U2OS cell lysate; endogenous in cells; host or cells: U2OS cell lysate
T16 sequence (Q6PHR2 whole entry): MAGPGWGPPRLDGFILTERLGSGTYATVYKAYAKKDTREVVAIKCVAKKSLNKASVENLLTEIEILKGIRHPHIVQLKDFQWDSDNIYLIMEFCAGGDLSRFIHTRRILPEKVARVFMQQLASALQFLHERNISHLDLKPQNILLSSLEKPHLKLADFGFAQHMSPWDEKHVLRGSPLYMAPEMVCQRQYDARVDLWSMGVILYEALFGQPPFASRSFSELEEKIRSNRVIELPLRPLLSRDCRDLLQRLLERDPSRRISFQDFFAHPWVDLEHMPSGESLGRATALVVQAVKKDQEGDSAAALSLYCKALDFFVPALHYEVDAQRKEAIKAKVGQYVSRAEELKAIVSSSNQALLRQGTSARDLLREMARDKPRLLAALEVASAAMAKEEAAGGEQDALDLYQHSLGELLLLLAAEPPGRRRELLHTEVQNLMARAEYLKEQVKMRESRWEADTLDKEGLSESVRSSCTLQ
The settings on record: ULK3, Serine/threonine-protein kinase ULK3. In outline: as §1

For assay [17], the target named is T17, proteins of U2OS cell lysate (Homo sapiens, UniProt Q8N3V7).
T17 construct: Proteins enriched by c-ponatinib from U2OS cell lysate; endogenous in cells; host or cells: U2OS cell lysate
The following applies: SYNPO, Synaptopodin. An outline of the steps:
as §1

In assay [18] the target is T18, proteins of U2OS cell lysate (Homo sapiens, UniProt Q9NYJ8).
T18 construct: Proteins enriched by c-ponatinib from U2OS cell lysate; endogenous in cells; host or cells: U2OS cell lysate
The settings on record: TAB2, TGF-beta-activated kinase 1 and MAP3K7-binding protein 2. In outline: as §1

For assay [19], the target named is T19, proteins of U2OS cell lysate (Homo sapiens, UniProt P21796).
T19 construct: Proteins enriched by c-ponatinib from U2OS cell lysate; endogenous in cells; host or cells: U2OS cell lysate
T19 sequence (P21796 whole entry): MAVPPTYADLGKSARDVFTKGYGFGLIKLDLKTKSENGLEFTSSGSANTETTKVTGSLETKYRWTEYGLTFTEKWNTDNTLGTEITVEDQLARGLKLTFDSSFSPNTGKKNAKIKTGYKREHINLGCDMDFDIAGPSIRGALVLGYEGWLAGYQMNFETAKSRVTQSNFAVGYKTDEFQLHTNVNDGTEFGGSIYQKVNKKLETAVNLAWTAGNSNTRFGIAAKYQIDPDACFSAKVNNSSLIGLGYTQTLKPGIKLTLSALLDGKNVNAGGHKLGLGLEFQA
The following applies: captured protein VDAC1, Rank 118. In outline:
as §1

T1 sequence (O43809 whole entry): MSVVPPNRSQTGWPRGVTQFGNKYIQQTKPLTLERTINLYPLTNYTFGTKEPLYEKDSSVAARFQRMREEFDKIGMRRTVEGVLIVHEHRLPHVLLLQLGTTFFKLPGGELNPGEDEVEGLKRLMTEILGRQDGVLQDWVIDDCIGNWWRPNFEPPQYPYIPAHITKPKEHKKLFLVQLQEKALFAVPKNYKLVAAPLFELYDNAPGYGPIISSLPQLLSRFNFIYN

With `Cc1ccc(C(=O)Nc2ccc(CN3CCN(C)CC3)c(C(F)(F)F)c2)cc1C#Cc1cnc2cccnn12` [PON], the “Average LFQ PON_WT” value stood at 20.8271 in assay [1]; 20.3187 in assay [2]; 23.283 in [3]; 21.4215 in assay [4]; 26.7986 in assay [5]; 23.5505 in [6]. Further, the “Average LFQ PON_WT” value in assay [7] is on record as 27.1657; in [8] it was 25.7972; in assay [9], 21.4728; in assay [10], 23.8741; in assay [11], 21.3119; in assay [12] it was 21.3006. In addition, the “Average LFQ PON_WT” value is recorded as 24.2612 in assay [13]; 26.3342 in assay [14]; 23.204 in assay [15]; 24.6179 in assay [16]; 23.2218 in [17]; 24.3605 in [18].

As for `Cc1ccc(C(=O)Nc2ccc(CN3CCN(CCCN)CC3)c(C(F)(F)F)c2)cc1C#Cc1cnc2cccnn12` [c-ponatinib, reference compound], in assay [19], the “Average LFQ intensity” value amounted to 23.117.

These data come from article PMC6120666 (The EMBO Journal, 2018).
